US20230148005A1, “MACROCYCLIC COMPOUNDS AND USES THEREOF” (THESEUS PHARMACEUTICALS, INC., priority 2020, published 2023)

Tests used:
[1] = biological target: Ba/F3 EGFR-Del19/T790M/C797S (Homo sapiens, UniProt P00533, T790M/C797S, cells depend on it, form not given); assay: Ba/F3 viability assay (CellTiter-Glo), DTC; assay type: cell-based; conditions: anti-proliferation, read-out: BaF3 DTC IC50
Source text: (§1) Inhibition of cell proliferation can be studied using Ba/F3 viability assays, including the Promega CellTiter-Glo cell viability assay. This assay can be used to study the effect of compounds described herein in the following assays: (1) Ba/F3 Parental; (2) Ba/F3 EGFR-Del19/T790M; (3); Ba/F3 EGFR-Del19/C797S; and (4) Ba/F3 EGFR-Del19/T790M/C797S.

EGFR^L858R/T790M/C^797S = EGFR^L858R/T790M/C^797S (Homo sapiens, UniProt P00533, C797S/L858R/T790M); assay: in vitro kinase assay (HTRF KinEASE-TK kit), LTC; assay type: biochemical; conditions: kinase inhibition
Source text: (§2) Assays using an in vitro kinase assay kit (HTRF KinEASE-TK kit) can be used to study the inhibitory activity of compounds described herein with respect to EGFR mutants such as EGFR^L858R, EGFR^L58R/T790M, and EGFR^L858R/T790M/C^797S.

Ba/F3 EGFR-Del19/T790M = Ba/F3 EGFR-Del19/T790M (Homo sapiens, UniProt P00533, T790M, cells depend on it, form not given); assay: Ba/F3 viability assay (CellTiter-Glo), DT; assay type: cell-based; conditions: anti-proliferation, read-out: BaF3 DT IC50
Source text: as §1

EGFR^L858R = EGFR^L858R (Homo sapiens, UniProt P00533, L858R); assay: in vitro kinase assay (HTRF KinEASE-TK kit), L; assay type: biochemical; conditions: kinase inhibition
Sequence of EGFR^L858R (P00533 25-1210 L858R): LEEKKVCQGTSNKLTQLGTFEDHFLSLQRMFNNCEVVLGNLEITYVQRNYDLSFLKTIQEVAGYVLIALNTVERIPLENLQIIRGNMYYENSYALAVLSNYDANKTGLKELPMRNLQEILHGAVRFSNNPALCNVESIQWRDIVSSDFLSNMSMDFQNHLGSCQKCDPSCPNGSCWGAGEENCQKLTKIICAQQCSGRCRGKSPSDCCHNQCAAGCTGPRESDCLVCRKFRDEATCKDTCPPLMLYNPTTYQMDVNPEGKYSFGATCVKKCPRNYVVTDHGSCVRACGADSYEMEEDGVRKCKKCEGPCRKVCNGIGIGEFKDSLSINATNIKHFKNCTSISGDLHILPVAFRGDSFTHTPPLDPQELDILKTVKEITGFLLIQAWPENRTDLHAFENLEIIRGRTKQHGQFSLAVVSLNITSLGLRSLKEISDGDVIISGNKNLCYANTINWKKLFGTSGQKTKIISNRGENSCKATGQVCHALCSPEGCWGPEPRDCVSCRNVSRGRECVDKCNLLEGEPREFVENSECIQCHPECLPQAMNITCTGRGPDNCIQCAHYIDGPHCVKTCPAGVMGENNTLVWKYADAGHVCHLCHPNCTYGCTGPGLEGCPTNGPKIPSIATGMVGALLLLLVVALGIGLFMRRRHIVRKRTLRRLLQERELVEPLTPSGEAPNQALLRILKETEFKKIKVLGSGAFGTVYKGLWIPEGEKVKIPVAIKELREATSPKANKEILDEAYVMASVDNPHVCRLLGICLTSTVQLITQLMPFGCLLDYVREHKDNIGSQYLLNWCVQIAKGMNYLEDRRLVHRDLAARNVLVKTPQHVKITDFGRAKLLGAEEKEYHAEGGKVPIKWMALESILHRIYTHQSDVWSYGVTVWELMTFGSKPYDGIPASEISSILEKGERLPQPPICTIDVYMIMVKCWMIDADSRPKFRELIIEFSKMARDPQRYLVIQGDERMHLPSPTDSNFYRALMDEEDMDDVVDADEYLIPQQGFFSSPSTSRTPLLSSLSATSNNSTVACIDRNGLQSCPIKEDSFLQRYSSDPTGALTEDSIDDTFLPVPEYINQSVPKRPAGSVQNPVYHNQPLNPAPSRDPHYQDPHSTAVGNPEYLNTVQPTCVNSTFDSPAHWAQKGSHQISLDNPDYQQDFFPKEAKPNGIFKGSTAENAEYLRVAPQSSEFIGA
Source text: as §2

EGFR^L58R/T790M = EGFR^L58R/T790M (Homo sapiens, UniProt P00533, L858R/T790M); assay: in vitro kinase assay (HTRF KinEASE-TK kit), LT; assay type: biochemical; conditions: kinase inhibition
Sequence of EGFR^L58R/T790M (P00533 25-1210 T790M/L858R): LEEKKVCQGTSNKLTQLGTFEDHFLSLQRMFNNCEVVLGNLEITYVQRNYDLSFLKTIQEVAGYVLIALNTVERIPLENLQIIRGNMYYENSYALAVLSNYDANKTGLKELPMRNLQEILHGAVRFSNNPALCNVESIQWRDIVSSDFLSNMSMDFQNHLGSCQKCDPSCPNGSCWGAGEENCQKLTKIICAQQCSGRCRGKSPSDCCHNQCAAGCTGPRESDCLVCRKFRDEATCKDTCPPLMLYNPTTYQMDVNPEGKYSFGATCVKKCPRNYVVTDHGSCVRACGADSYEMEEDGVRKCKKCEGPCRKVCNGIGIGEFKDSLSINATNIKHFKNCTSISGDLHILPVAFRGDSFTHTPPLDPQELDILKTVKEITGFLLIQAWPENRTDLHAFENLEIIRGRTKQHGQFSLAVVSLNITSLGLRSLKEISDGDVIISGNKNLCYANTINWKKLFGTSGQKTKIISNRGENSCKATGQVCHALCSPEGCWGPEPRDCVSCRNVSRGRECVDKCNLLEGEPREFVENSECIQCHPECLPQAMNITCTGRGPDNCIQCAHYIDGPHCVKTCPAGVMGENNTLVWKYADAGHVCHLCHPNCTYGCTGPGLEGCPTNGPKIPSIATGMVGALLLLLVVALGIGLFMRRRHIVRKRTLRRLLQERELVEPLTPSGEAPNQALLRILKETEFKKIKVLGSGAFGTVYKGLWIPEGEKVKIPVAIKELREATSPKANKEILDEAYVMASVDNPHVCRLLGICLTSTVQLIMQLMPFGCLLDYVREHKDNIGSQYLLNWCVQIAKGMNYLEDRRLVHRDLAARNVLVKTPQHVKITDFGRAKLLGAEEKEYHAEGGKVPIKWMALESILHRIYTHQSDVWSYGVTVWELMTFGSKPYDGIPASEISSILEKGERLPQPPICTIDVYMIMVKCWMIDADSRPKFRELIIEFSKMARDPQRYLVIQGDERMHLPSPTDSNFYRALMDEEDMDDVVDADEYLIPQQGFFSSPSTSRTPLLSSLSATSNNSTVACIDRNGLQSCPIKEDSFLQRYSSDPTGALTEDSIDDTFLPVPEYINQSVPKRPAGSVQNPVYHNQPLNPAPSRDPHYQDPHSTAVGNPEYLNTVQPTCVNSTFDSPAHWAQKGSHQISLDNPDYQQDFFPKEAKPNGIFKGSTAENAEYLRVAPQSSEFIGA
Source text: as §2

Ba/F3 EGFR-Del19/C797S = Ba/F3 EGFR-Del19/C797S (Homo sapiens, UniProt P00533, C797S, cells depend on it, form not given); assay: Ba/F3 viability assay (CellTiter-Glo), DC; assay type: cell-based; conditions: anti-proliferation, read-out: BaF3 DC IC50
Sequence of Ba/F3 EGFR-Del19/C797S (P00533 with tags, fused parts or gaps DEL746-750/C797S, form open): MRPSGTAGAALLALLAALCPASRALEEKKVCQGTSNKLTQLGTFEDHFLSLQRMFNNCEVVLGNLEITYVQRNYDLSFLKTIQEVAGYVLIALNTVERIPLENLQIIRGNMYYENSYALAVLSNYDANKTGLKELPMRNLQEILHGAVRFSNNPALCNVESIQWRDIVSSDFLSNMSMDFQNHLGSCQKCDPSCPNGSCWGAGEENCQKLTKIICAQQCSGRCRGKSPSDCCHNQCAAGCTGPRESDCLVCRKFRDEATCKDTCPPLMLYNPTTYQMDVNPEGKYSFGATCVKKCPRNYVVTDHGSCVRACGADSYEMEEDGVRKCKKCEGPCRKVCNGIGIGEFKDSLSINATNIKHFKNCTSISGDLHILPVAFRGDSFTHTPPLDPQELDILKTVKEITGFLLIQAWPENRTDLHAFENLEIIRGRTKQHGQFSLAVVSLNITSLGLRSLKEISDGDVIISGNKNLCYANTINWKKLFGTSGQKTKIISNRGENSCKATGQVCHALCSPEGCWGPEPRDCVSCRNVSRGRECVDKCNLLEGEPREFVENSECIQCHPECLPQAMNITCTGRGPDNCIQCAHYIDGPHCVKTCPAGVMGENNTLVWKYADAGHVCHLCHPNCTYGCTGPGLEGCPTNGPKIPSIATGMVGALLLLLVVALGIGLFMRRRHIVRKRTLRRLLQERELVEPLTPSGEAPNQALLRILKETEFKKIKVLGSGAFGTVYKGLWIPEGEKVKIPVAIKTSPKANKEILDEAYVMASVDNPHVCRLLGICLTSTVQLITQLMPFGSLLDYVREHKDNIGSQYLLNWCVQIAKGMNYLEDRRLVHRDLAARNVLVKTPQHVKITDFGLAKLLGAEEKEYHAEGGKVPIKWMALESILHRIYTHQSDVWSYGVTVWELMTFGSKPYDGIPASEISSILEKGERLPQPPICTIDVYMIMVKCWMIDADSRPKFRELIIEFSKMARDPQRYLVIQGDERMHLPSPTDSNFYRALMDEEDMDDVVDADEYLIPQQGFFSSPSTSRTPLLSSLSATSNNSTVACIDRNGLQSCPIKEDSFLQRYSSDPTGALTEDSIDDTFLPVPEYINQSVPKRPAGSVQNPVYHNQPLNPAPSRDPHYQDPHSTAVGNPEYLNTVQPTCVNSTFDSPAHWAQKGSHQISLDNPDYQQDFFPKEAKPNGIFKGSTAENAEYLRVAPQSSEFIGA
Source text: as §1

Ba/F3 Parental = assay: Ba/F3 viability assay (CellTiter-Glo), parental; assay type: cell-based; conditions: Mus musculus, BaF3, anti-proliferation
Source text: as §1

Sequence of Ba/F3 EGFR-Del19/T790M/C797S (P00533 with tags, fused parts or gaps DEL746-750/T790M/C797S, form open): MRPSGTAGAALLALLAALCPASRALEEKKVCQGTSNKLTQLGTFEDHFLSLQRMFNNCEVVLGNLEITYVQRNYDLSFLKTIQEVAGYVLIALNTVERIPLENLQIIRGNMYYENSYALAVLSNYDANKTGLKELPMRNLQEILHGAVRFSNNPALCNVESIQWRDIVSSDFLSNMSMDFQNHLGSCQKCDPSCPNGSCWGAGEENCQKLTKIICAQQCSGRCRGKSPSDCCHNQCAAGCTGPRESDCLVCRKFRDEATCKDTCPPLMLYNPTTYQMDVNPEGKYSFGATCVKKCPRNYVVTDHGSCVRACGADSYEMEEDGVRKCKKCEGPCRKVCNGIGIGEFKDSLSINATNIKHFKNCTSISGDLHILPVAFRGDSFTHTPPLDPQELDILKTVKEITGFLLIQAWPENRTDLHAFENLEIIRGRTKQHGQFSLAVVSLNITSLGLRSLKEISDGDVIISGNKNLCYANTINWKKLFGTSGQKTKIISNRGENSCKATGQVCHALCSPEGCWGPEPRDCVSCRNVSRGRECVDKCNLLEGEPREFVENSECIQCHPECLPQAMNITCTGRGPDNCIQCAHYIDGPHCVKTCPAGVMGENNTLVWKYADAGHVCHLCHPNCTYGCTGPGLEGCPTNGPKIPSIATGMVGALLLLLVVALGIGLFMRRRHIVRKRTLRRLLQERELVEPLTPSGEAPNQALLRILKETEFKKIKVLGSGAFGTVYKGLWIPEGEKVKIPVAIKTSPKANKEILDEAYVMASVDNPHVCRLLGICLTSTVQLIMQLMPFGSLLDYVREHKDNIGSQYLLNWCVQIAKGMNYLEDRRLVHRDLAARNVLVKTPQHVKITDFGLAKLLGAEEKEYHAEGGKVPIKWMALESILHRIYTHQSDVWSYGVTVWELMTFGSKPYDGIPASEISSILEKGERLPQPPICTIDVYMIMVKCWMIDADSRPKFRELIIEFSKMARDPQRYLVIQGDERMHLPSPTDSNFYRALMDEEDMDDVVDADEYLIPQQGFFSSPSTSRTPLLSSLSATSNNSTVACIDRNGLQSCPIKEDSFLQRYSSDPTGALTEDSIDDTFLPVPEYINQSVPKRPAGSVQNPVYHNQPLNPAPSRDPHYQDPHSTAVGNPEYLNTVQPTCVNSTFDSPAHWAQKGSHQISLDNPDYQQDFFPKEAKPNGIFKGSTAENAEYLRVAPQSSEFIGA

Compound | GI50 [1] [nM] | IC50 (EGFR^L858R/T790M/C^797S) [nM] | GI50 (Ba/F3 EGFR-Del19/T790M) [nM] | IC50 (EGFR^L858R) [nM] | IC50 (EGFR^L58R/T790M) [nM] | GI50 (Ba/F3 EGFR-Del19/C797S) [nM] | IC50 (Ba/F3 Parental) [nM]
CCN(CC)Cc1ccc(-c2nn3c4cc(ncc24)Nc2ccnc(n2)-c2cnn(C)c2OCC[C@@H]3C)n1C [(137)] | < 10 | < 10 | < 10 | < 10 | < 10 | < 10 | 100 to 1000
CCn1cc(-c2nn3c4cc(ncc24)Nc2ccnc(n2)-c2cnn(C)c2OCCC3C)cc1CN1CCN(C(C)C)CC1 (stereo not drawn) [(80)] | < 10 | < 10 | < 10 | < 10 | < 10 | < 10 | 10 to 100
CCC1CCOc2c(cnn2C)-c2nccc(n2)Nc2cc3c(cn2)c(N2CCC2)nn31 (stereo not drawn) [(5)] | 10 to 100 | < 10 | 10 to 100 | 10 to 100 | < 10 | 10 to 100 | ≥ 1000
CCCN(C)Cc1ccc(-c2nn3c4cc(ncc24)Nc2ccnc(n2)-c2cnn(C)c2OCC[C@@H]3C)n1C [(138)] | < 10 | < 10 | < 10 | < 10 | < 10 | < 10 | 100 to 1000
C[C@H]1CCOc2c(cnn2C)-c2nccc(n2)Nc2cc3c(cn2)c(-c2cccc(N4CCC(N(C)C)CC4)c2)nn31 [(108)] | < 10 | < 10 | 10 to 100 | < 10 | < 10 | 10 to 100 | 100 to 1000
CC1CCOc2ccncc2-c2nccc(n2)Nc2cc3c(cn2)c(N2CCC2)nn31 (stereo not drawn) [(14), 20-(azetidin-1-yl)-17-methyl-14-oxa-2,6,10,18,19,23,26-heptazapentacyclo[16.5.2.13,7.08,13.021,25]hexacosa-1(23),3,5,7(26),8(13),9,11,19,21,24-decaene] | < 10 | < 10 | < 10 | < 10 | < 10 | < 10 | 10 to 100
CCn1cc(-c2nn3c4cc(ncc24)Nc2ccnc(n2)-c2cnn(C)c2OCC[C@@H]3C)cc1CN(C)C [(156)] | < 10 | < 10 | < 10 | < 10 | < 10 | < 10 | 100 to 1000
Cn1ncc2c1OCCC(C)(C)n1nc(N3CCC3)c3cnc(cc31)Nc1ccnc-2n1 [(4), 19-(azetidin-1-yl)-11,16,16-trimethyl-13-oxa-2,6,10,11,17,18,22,25-octazapentacyclo[15.5.2.1^3,7.0^8,12.0^20,24]pentacosa-1(22),3,5,7(25),8(12),9,18,20,23-nonaene] | 100 to 1000 | < 10 | 100 to 1000 | 100 to 1000 | < 10 | 100 to 1000 | ≥ 1000
C[C@H]1CCOc2c(cnn2C)-c2nccc(n2)Nc2cc3c(cn2)c(-c2cccc(N4CCC(N5CCOCC5)CC4)c2)nn31 [(160)] | < 10 | < 10 | < 10 | < 10 | < 10 | 10 to 100 | 100 to 1000
Cc1nn(CCC(C)(C)O)cc1-c1nn2c3cc(ncc13)Nc1ccnc(n1)-c1cnn(C)c1OCCCC2C (stereo not drawn) [(89)] | 10 to 100 | < 10 | 10 to 100 | 10 to 100 | < 10 | 10 to 100 | 100 to 1000
Cn1ncc2c1OCCCn1nc(N3CCC3)c3cnc(cc31)Nc1ccnc-2n1 [(3)] | 100 to 1000 | < 10 | 10 to 100 | 10 to 100 | < 10 | 100 to 1000 | 100 to 1000
C[C@H]1CCOc2c(cnn2C)-c2nccc(n2)Nc2cc3c(cn2)c(-c2ccc(CN(C)C)cc2)nn31 [(176)] | < 10 | < 10 | < 10 | < 10 | < 10 | 10 to 100 | 100 to 1000
CCN(CC)CCOc1ccc(C)c(-c2nn3c4cc(ncc24)Nc2ccnc(n2)-c2cnn(C)c2OCC[C@@H]3C)c1 [(159)] | 100 to 1000 | 10 to 100 | 100 to 1000 | 100 to 1000 | 10 to 100 | 100 to 1000 | 100 to 1000
C[C@H]1CCOc2c(cnn2C)-c2nccc(n2)Nc2cc3c(cn2)c(-c2ccc(CN(C)CCCF)n2C)nn31 [(192)] | < 10 | < 10 | < 10 | < 10 | < 10 | < 10 | 100 to 1000
C[C@H]1CCOc2c(cnn2C)-c2nccc(n2)Nc2cc3c(cn2)c(-c2ccc(CN(C)C)n2C)nn31 [(127)] | < 10 | < 10 | < 10 | < 10 | < 10 | < 10 | 100 to 1000
C[C@H]1CCOc2c(cnn2C)-c2nccc(n2)Nc2cc3c(cn2)c(-c2ccc(CN4CCN(C)CC4)n2C)nn31 [(101), (16S)-11,16-dimethyl-19-[1-methyl-5-[(4-methylpiperazin-1-yl)methyl]pyrrol-2-yl]-13-oxa-2,6,10,11,17,18,22,25-octazapentacyclo[15.5.2.13,7.08,12.020,24]pentacosa-1(22),3,5,7(25),8(12),9,18,20,23-nonaene] | < 10 | < 10 | < 10 | < 10 | < 10 | < 10 | 100 to 1000
C[C@H]1CCOc2c(cnn2C)-c2nccc(n2)Nc2cc3c(cn2)c(-c2ccc(CN4CCN(C)CC4)cc2)nn31 [(172)] | < 10 | < 10 | < 10 | < 10 | < 10 | < 10 | 10 to 100
Cn1ncc2c1OCCCn1nc(N3CCCC3C(=O)O)c3cnc(cc31)Nc1ccnc-2n1 (stereo not drawn) [(65)] | 100 to 1000 | < 10 | 100 to 1000 | 100 to 1000 | < 10 | 100 to 1000 | 100 to 1000
CC1CCOc2c(cnn2C)-c2nccc(n2)Nc2cc3c(cn2)c(-c2ccn(C)n2)nn31 (stereo not drawn) [(69)] | 10 to 100 | < 10 | 10 to 100 | 10 to 100 | < 10 | 10 to 100 | ≥ 1000
C[C@H]1CCOc2c(cnn2C)-c2nccc(n2)Nc2cc3c(cn2)c(-c2ccc(CN4CCN(CCF)CC4)n2C)nn31 [(193)] | < 10 | < 10 | < 10 | < 10 | < 10 | < 10 | 100 to 1000
Cc1ccc(-c2nn3c4cc(ncc24)Nc2ccnc(n2)-c2cnn(C)c2OCC[C@@H]3C)n1C [(150)] | 10 to 100 | < 10 | 10 to 100 | 10 to 100 | < 10 | 10 to 100 | ≥ 1000
